According to patent US4560676A, “N^α -desacetylthymosinα1 and process” (The Rockefeller University, priority 1981, dated 1985):
Where no end group is shown, it is not given here.

Columns and labels:
[1] = test system: spleen cells of adult thymectomized mice; assay: rosette inhibition assay (azathioprine-sensitive rosette assay); assay type: cell-based; conditions: restoration of azathioprine sensitivity in rosette formation
Protocol: The desacetylthymosin α1 prepared and characterized above was compared with thymosin α1, prepared on both benzyhydrylamine and PAM resins in the rosette inhibition assay (azathioprine-sensitive rosette assay) as described by Dardenne and Bach in "The Biological Action of Thymic Hormones" (van Bekkum, D. K., Ed.), page 235 (Kooyker Scientific Publications, Rotterdam, 1975). In this assay the peptides are tested for ability to restore azathioprine sensitivity in rosette formation by spleen cells of adult thymectomized mice.

[2] = test system: T-cell differentiation and function; conditions: several in vitro and in vivo assay systems; cited from earlier work

Row | Substance | activity in rosette inhibition assay compared with each other and with natural thymosin α1 [1] | activity relative to fraction 5 [2]
1 | SDAAVDTSSEITTKDLKEKKEVVEEAEN [desacetylthymosin α1, N^α -desacetylthymosin α1] | equally active | 
2 | thymosin α1 (SDAAVDTSSEITTKDLKEKKEVVEEAEN; ends and bridges not checked; UniProt P06454 2-29, looked up) [synthetic thymosin α1 prepared on benzhydrylamine and PAM resins; component of thymosin fraction 5] | equally active | 10 to 1000 times
